A short description of one data set: The drug is tested on Bacteroides caccae strain: ATCC43185 for biotransformation. The drug concentrations were measured before and after a 12-h incubation by liquid-chromatography-coupled mass spectrometry (LC–MS). The settings on record: 2 µM.
For `CCC(COC(=O)c1cc(OC)c(OC)c(OC)c1)(c1ccccc1)N(C)C.O=C(O)/C=C\C(=O)O` (centres undefined), the “Bacterial Biotransformation” value is “Compound NOT metabolized”.

A further data set in a line: The drug is tested on Bacteroides cellulosilyticus strain: DSM14838 for biotransformation. The drug concentrations were measured before and after a 12-h incubation by liquid-chromatography-coupled mass spectrometry (LC–MS). As to conditions: 2 µM.
With `CCC(COC(=O)c1cc(OC)c(OC)c(OC)c1)(c1ccccc1)N(C)C.O=C(O)/C=C\C(=O)O` (centres undefined), the “Bacterial Biotransformation” value is listed as “Compound NOT metabolized”.
With `CC(=O)OCC(=O)[C@@]1(O)[C@@H](C)C[C@H]2[C@@H]3CCC4=CC(=O)C=C[C@]4(C)[C@@]3(F)[C@@H](O)C[C@@]21C` [BETAMETHASONE ACETATE], the “Bacterial Biotransformation” value is “Compound NOT metabolized”.

The next data set is described as follows: The drug is tested on Bacteroides finegoldii strain: DSM17565 for biotransformation. The drug concentrations were measured before and after a 12-h incubation by liquid-chromatography-coupled mass spectrometry (LC–MS). As to conditions: 2 µM.
Regarding `CCC(COC(=O)c1cc(OC)c(OC)c(OC)c1)(c1ccccc1)N(C)C.O=C(O)/C=C\C(=O)O` (centres undefined), the “Bacterial Biotransformation” value was “Compound metabolized”.
For the molecule `CC(=O)OCC(=O)[C@@]1(O)[C@@H](C)C[C@H]2[C@@H]3CCC4=CC(=O)C=C[C@]4(C)[C@@]3(F)[C@@H](O)C[C@@]21C` [BETAMETHASONE ACETATE], the “Bacterial Biotransformation” value is listed as “Compound NOT metabolized”.

A short description of the next data set: The drug is tested on Bacteroides fragilis strain: ATCC43859 for biotransformation. The drug concentrations were measured before and after a 12-h incubation by liquid-chromatography-coupled mass spectrometry (LC–MS). The settings on record: 2 µM.
In the case of `CCC(COC(=O)c1cc(OC)c(OC)c(OC)c1)(c1ccccc1)N(C)C.O=C(O)/C=C\C(=O)O` (centres undefined), the “Bacterial Biotransformation” value is “Compound NOT metabolized”.
As for `CC(=O)OCC(=O)[C@@]1(O)[C@@H](C)C[C@H]2[C@@H]3CCC4=CC(=O)C=C[C@]4(C)[C@@]3(F)[C@@H](O)C[C@@]21C` [BETAMETHASONE ACETATE], the “Bacterial Biotransformation” value is reported as “Compound metabolized”.

A short description of another data set: The drug is tested on Bacteroides ovatus strain: ATCC8483 for biotransformation. The drug concentrations were measured before and after a 12-h incubation by liquid-chromatography-coupled mass spectrometry (LC–MS). The settings on record: 2 µM.
As to `CCC(COC(=O)c1cc(OC)c(OC)c(OC)c1)(c1ccccc1)N(C)C.O=C(O)/C=C\C(=O)O` (centres undefined), the “Bacterial Biotransformation” value is reported as “Compound metabolized”.

The nature of a further data set: The drug is tested on Blautia luti strain: DSM14534 for biotransformation. The drug concentrations were measured before and after a 12-h incubation by liquid-chromatography-coupled mass spectrometry (LC–MS). It counts as ADME. More on the design: dose 2 uM, timepoint 0 vs 12 hours. The settings on record: 2 µM.
As to `CCC(COC(=O)c1cc(OC)c(OC)c(OC)c1)(c1ccccc1)N(C)C.O=C(O)/C=C\C(=O)O` (centres undefined), the “Bacterial Biotransformation” value is reported as “Compound metabolized”.
In the case of `CC(=O)OCC(=O)[C@@]1(O)[C@@H](C)C[C@H]2[C@@H]3CCC4=CC(=O)C=C[C@]4(C)[C@@]3(F)[C@@H](O)C[C@@]21C` [BETAMETHASONE ACETATE], the “Bacterial Biotransformation” value is on record as “Compound NOT metabolized”.

A further data set in a line: The drug is tested on Clostridium sp. strain: fecal isolate for biotransformation. The drug concentrations were measured before and after a 12-h incubation by liquid-chromatography-coupled mass spectrometry (LC–MS). As to conditions: 2 µM.
For `CCC(COC(=O)c1cc(OC)c(OC)c(OC)c1)(c1ccccc1)N(C)C.O=C(O)/C=C\C(=O)O` (centres undefined), the “Bacterial Biotransformation” value was “Compound metabolized”.
For the molecule `CC(=O)OCC(=O)[C@@]1(O)[C@@H](C)C[C@H]2[C@@H]3CCC4=CC(=O)C=C[C@]4(C)[C@@]3(F)[C@@H](O)C[C@@]21C` [BETAMETHASONE ACETATE], the “Bacterial Biotransformation” value is listed as “Compound metabolized”.

The next data set is described as follows: The drug is tested on Clostridium scindens strain: ATCC35704 for biotransformation. The drug concentrations were measured before and after a 12-h incubation by liquid-chromatography-coupled mass spectrometry (LC–MS). As to conditions: 2 µM.
As for `CCC(COC(=O)c1cc(OC)c(OC)c(OC)c1)(c1ccccc1)N(C)C.O=C(O)/C=C\C(=O)O` (centres undefined), the “Bacterial Biotransformation” value is recorded as “Compound metabolized”.
In the case of `CC(=O)OCC(=O)[C@@]1(O)[C@@H](C)C[C@H]2[C@@H]3CCC4=CC(=O)C=C[C@]4(C)[C@@]3(F)[C@@H](O)C[C@@]21C` [BETAMETHASONE ACETATE], the “Bacterial Biotransformation” value was “Compound NOT metabolized”.

The next data set in a line: The drug is tested on Clostridium symbiosum strain: ATCC14940 for biotransformation. The drug concentrations were measured before and after a 12-h incubation by liquid-chromatography-coupled mass spectrometry (LC–MS). As to conditions: 2 µM.
As for `CCC(COC(=O)c1cc(OC)c(OC)c(OC)c1)(c1ccccc1)N(C)C.O=C(O)/C=C\C(=O)O` (centres undefined), the “Bacterial Biotransformation” value is given as “Compound metabolized”.
Same read-out and setting: under `CC(=O)OCC(=O)[C@@]1(O)[C@@H](C)C[C@H]2[C@@H]3CCC4=CC(=O)C=C[C@]4(C)[C@@]3(F)[C@@H](O)C[C@@]21C` [BETAMETHASONE ACETATE] stands “Compound NOT metabolized”.

The nature of the next data set: The drug is tested on Eubacterium hallii strain: DSM3353 for biotransformation. The drug concentrations were measured before and after a 12-h incubation by liquid-chromatography-coupled mass spectrometry (LC–MS). The settings on record: anaerobutyricum hallii, 2 µM.
With `CCC(COC(=O)c1cc(OC)c(OC)c(OC)c1)(c1ccccc1)N(C)C.O=C(O)/C=C\C(=O)O` (centres undefined), the “Bacterial Biotransformation” value is on record as “Compound metabolized”.

The next data set can be described thus: The drug is tested on Eubacterium rectale strain: ATCC33656 for biotransformation. The drug concentrations were measured before and after a 12-h incubation by liquid-chromatography-coupled mass spectrometry (LC–MS). The settings on record: agathobacter rectalis, 2 µM.
Consider `CCC(COC(=O)c1cc(OC)c(OC)c(OC)c1)(c1ccccc1)N(C)C.O=C(O)/C=C\C(=O)O` (centres undefined), for which the “Bacterial Biotransformation” value is recorded as “Compound metabolized”.
`CC(=O)OCC(=O)[C@@]1(O)[C@@H](C)C[C@H]2[C@@H]3CCC4=CC(=O)C=C[C@]4(C)[C@@]3(F)[C@@H](O)C[C@@]21C` [BETAMETHASONE ACETATE]: the “Bacterial Biotransformation” value is recorded as “Compound NOT metabolized”.

The nature of a further data set: The drug is tested on Subdoligranulum variabile strain: DSM15176 for biotransformation. The drug concentrations were measured before and after a 12-h incubation by liquid-chromatography-coupled mass spectrometry (LC–MS). As to conditions: 2 µM.
Regarding `CCC(COC(=O)c1cc(OC)c(OC)c(OC)c1)(c1ccccc1)N(C)C.O=C(O)/C=C\C(=O)O` (centres undefined), the “Bacterial Biotransformation” value is listed as “Compound metabolized”.
Consider `CC(=O)OCC(=O)[C@@]1(O)[C@@H](C)C[C@H]2[C@@H]3CCC4=CC(=O)C=C[C@]4(C)[C@@]3(F)[C@@H](O)C[C@@]21C` [BETAMETHASONE ACETATE], for which the “Bacterial Biotransformation” value is listed as “Compound NOT metabolized”.

The next data set in a line: The drug is tested on Enterobacter cancerogenus strain: ATCC35316 for biotransformation. The drug concentrations were measured before and after a 12-h incubation by liquid-chromatography-coupled mass spectrometry (LC–MS). The settings on record: 2 µM.
For the molecule `CCC(COC(=O)c1cc(OC)c(OC)c(OC)c1)(c1ccccc1)N(C)C.O=C(O)/C=C\C(=O)O` (centres undefined), the “Bacterial Biotransformation” value is “Compound metabolized”.
Same read-out and setting: under `CC(=O)OCC(=O)[C@@]1(O)[C@@H](C)C[C@H]2[C@@H]3CCC4=CC(=O)C=C[C@]4(C)[C@@]3(F)[C@@H](O)C[C@@]21C` [BETAMETHASONE ACETATE] stands “Compound NOT metabolized”.

The next data set is described as follows: The drug is tested on Escherichia coli strain: BW25113 for biotransformation. The drug concentrations were measured before and after a 12-h incubation by liquid-chromatography-coupled mass spectrometry (LC–MS). As to conditions: 2 µM.
`CCC(COC(=O)c1cc(OC)c(OC)c(OC)c1)(c1ccccc1)N(C)C.O=C(O)/C=C\C(=O)O` (centres undefined): the “Bacterial Biotransformation” value was “Compound metabolized”.
For the molecule `CC(=O)OCC(=O)[C@@]1(O)[C@@H](C)C[C@H]2[C@@H]3CCC4=CC(=O)C=C[C@]4(C)[C@@]3(F)[C@@H](O)C[C@@]21C` [BETAMETHASONE ACETATE], the “Bacterial Biotransformation” value is listed as “Compound NOT metabolized”.

The conditions of a further data set: bacteroides fragilis, 12 h, 2 µM.
Description: The drug is tested on Bacteroides fragilis strain: NCTC 9343 for biotransformation. The drug concentrations were measured before and after a 12-h incubation by liquid-chromatography-coupled mass spectrometry (LC–MS)
With `CCC(COC(=O)c1cc(OC)c(OC)c(OC)c1)(c1ccccc1)N(C)C.O=C(O)/C=C\C(=O)O` (centres undefined), the “Bacterial Biotransformation” value is “Compound metabolized”.
For `CC(=O)OCC(=O)[C@@]1(O)[C@@H](C)C[C@H]2[C@@H]3CCC4=CC(=O)C=C[C@]4(C)[C@@]3(F)[C@@H](O)C[C@@]21C` [BETAMETHASONE ACETATE], the “Bacterial Biotransformation” value is reported as “Compound metabolized”.

The conditions of another data set: bacteroides fragilis, 12 h, 2 µM. This is another data set of the same source.
Description: The drug is tested on Bacteroides fragilis strain: DS-208 for biotransformation. The drug concentrations were measured before and after a 12-h incubation by liquid-chromatography-coupled mass spectrometry (LC–MS)
As to `CCC(COC(=O)c1cc(OC)c(OC)c(OC)c1)(c1ccccc1)N(C)C.O=C(O)/C=C\C(=O)O` (centres undefined), the “Bacterial Biotransformation” value was “Compound NOT metabolized”.
Regarding `CC(=O)OCC(=O)[C@@]1(O)[C@@H](C)C[C@H]2[C@@H]3CCC4=CC(=O)C=C[C@]4(C)[C@@]3(F)[C@@H](O)C[C@@]21C` [BETAMETHASONE ACETATE], the “Bacterial Biotransformation” value is recorded as “Compound metabolized”.

The conditions of another data set: bacteroides thetaiotaomicron, 12 h, 2 µM.
Description: The drug is tested on Bacteroides thetaiotaomicron strain: VPI-5482 for biotransformation. The drug concentrations were measured before and after a 12-h incubation by liquid-chromatography-coupled mass spectrometry (LC–MS)
`CCC(COC(=O)c1cc(OC)c(OC)c(OC)c1)(c1ccccc1)N(C)C.O=C(O)/C=C\C(=O)O` (centres undefined): the “Bacterial Biotransformation” value was “Compound metabolized”.
Still for that read-out and setting: under `CC(=O)OCC(=O)[C@@]1(O)[C@@H](C)C[C@H]2[C@@H]3CCC4=CC(=O)C=C[C@]4(C)[C@@]3(F)[C@@H](O)C[C@@]21C` [BETAMETHASONE ACETATE] stands “Compound metabolized”.

The conditions of a further data set: bacteroides thetaiotaomicron, 12 h, 2 µM. This is another data set of the same source.
Description: The drug is tested on Bacteroides thetaiotaomicron strain: 3731 for biotransformation. The drug concentrations were measured before and after a 12-h incubation by liquid-chromatography-coupled mass spectrometry (LC–MS)
`CCC(COC(=O)c1cc(OC)c(OC)c(OC)c1)(c1ccccc1)N(C)C.O=C(O)/C=C\C(=O)O` (centres undefined): the “Bacterial Biotransformation” value is recorded as “Compound metabolized”.
As to `CC(=O)OCC(=O)[C@@]1(O)[C@@H](C)C[C@H]2[C@@H]3CCC4=CC(=O)C=C[C@]4(C)[C@@]3(F)[C@@H](O)C[C@@]21C` [BETAMETHASONE ACETATE], the “Bacterial Biotransformation” value is on record as “Compound NOT metabolized”.

The conditions of another data set: parabacteroides distasonis, 12 h, 2 µM.
Description: The drug is tested on Parabacteroides distasonis strain: ATCC8503 for biotransformation. The drug concentrations were measured before and after a 12-h incubation by liquid-chromatography-coupled mass spectrometry (LC–MS)
As for `CCC(COC(=O)c1cc(OC)c(OC)c(OC)c1)(c1ccccc1)N(C)C.O=C(O)/C=C\C(=O)O` (centres undefined), the “Bacterial Biotransformation” value is “Compound metabolized”.
